{
  "source": "patent US8541670B2",
  "about": "“Compositions and methods for inhibiting tumor cell growth” (priority 2007, dated 2013)",
  "target": "T1, AKT1 (Homo sapiens, UniProt P31749)",
  "T1 construct": "purchased Upstate Biotechnology",
  "T1 sequence (P31749 whole entry)": "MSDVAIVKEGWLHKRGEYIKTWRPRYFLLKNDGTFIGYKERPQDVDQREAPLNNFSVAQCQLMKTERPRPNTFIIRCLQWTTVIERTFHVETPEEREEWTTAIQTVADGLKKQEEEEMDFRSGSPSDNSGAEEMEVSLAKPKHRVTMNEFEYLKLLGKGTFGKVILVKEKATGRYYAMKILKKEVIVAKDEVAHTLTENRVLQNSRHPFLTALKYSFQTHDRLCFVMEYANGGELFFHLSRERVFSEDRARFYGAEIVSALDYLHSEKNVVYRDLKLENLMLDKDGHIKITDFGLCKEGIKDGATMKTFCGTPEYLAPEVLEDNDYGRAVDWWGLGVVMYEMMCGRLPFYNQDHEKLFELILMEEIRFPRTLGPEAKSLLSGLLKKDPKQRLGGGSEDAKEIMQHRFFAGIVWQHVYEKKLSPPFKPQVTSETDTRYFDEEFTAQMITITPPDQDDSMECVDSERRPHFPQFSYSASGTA",
  "experiment": "AKT1 radioactive in vitro kinase assay (32P incorporation into Ser-21 GSK-3 substrate peptide)",
  "format": "biochemical",
  "experimental": "AKT1 catalytic activity was determined by measuring the incorporation of −^32P into Ser-21 glycogen synthase kinase 3[…] (GSK-3[…]) substrate peptide. Histogram bars represent the number of −^32P counts per minute (CPM). Reactions were carried out in the presence of different concentrations of the ZaTa peptide (SEQ ID NO:60), as well as a control peptide (SEQ ID NO:59) which shares 11 out of 17 amino acids in common with the N-terminus of the ZaTa peptide.\nOf particular interest with regard to inhibitory activity toward AKT was peptide […](SEQ ID NO:60) which flanked the Thr-197 phosphorylation site of PKAc. […] Furthermore, the inhibitory effect of ZaTa peptide was compared with an adjacent peptide ([…] SEQ ID NO:59), a peptide that overlaps with the 11 N-terminal amino acid residues of the ZaTa peptide and carries the Thr-197 phosphorylation site. In this assay, the level of incorporation of −^32 P into Ser-21 GSK-3[…] substrate peptide was used as the measure of AKT1 in vitro catalytic activity.\nFor non-radioactive kinase assays, typically 25 ng of active AKT1 or PKAc (Upstate Biotechnology) was used in a kinase assay reaction buffer (20 mM MOPS, pH 7.2, 25 mM […]-glycerophosphate, 5 mM EGTA, 1 mM Na3VO4, 1 mM dithiothreitol, 75 mM MgCl2, and 0.5 mM ATP) in the presence of either 1 μL of Ser-9 GSK-3 GST fusion protein (Cell Signaling), or recombinant DARPP-32 (10 μg). For the radioactive kinase assays, typically 25 ng of kinase was added to the kinase assays reaction buffer (20 mM MOPS, pH 7.2, 25 mM […]-glycerophosphate, 5 mM EGTA, 1 mM Na3VO4, 1 mM dithiothreitol) containing 30 μM of dephosphorylated Ser-21 GSK-3 substrate peptide (Upstate Biotechnology) in the presence of different concentrations of inhibitor. Reactions were initiated by adding [−^32P] ATP (10 μCi/reaction) which was diluted in the reaction buffer, plus 500 μM cold ATP and 75 mM MgCl2. Kinase reactions were incubated 30° C. for 10-20 minutes. A 5 μL aliquot of the reaction was transferred to phosphocellulose paper, washed for 30 minutes with dH2O, and CPM of samples read in scintillation counter.",
  "note": "“And” between values parts separate entries of the source, which are not always exact repeats. Equal values may be shown once. Where no end group is shown, it is not given here.",
  "data": [
    {"sequence": "AKRVKGRTWTLCGTPEY [ZaTa]", "values": [
      {"measurement": "IC50", "setting": "32P incorporation into Ser-21 GSK-3 substrate peptide, read-out: IC-50, AKT1 catalytic activity in vitro", "value": "~0.1 µM and 0.1 µM"},
      {"measurement": "IC-50 of the ZaTa peptide (in words)", "setting": "FIG. 1 legend", "value": "within a nanomolar range"},
      {"measurement": "whether peptide is a substrate for AKT", "setting": "control kinase reactions with peptide and AKT only", "value": "not a substrate for AKT"}
    ]}
  ]
}
